This note sets out measurements from ChEMBL document CHEMBL5723583, “Data for DCP probe BAY-9835” (2024).

Experiment [1] deals with A disintegrin and metalloproteinase with thrombospondin motifs 7 (Homo sapiens, UniProt Q9UKP4). In words: Biochemical enzymatic FRET assay (hADAMTS7) ( FRET substrate, HiLyteFluor-488 DELSSMVLELRGLRT-K(QXL520)-E-NH2 (custom synthesis by Anaspec) was used.).
The target in experiment [2] is A disintegrin and metalloproteinase with thrombospondin motifs 4 (Homo sapiens, UniProt O75173). Nature of the experiment: Biochemical enzymatic FRET assay (hADAMTS4) ( FRET substrate, HiLyteFluor-488 DELSSMVLELRGLRT-K(QXL520)-E-NH2 (custom synthesis by Anaspec) was used.).

Molecules are shown by their SMILES. Where only a bound is given, the exact number is not on record here.

Chain of A disintegrin and metalloproteinase with thrombospondin motifs 4 (O75173 whole entry): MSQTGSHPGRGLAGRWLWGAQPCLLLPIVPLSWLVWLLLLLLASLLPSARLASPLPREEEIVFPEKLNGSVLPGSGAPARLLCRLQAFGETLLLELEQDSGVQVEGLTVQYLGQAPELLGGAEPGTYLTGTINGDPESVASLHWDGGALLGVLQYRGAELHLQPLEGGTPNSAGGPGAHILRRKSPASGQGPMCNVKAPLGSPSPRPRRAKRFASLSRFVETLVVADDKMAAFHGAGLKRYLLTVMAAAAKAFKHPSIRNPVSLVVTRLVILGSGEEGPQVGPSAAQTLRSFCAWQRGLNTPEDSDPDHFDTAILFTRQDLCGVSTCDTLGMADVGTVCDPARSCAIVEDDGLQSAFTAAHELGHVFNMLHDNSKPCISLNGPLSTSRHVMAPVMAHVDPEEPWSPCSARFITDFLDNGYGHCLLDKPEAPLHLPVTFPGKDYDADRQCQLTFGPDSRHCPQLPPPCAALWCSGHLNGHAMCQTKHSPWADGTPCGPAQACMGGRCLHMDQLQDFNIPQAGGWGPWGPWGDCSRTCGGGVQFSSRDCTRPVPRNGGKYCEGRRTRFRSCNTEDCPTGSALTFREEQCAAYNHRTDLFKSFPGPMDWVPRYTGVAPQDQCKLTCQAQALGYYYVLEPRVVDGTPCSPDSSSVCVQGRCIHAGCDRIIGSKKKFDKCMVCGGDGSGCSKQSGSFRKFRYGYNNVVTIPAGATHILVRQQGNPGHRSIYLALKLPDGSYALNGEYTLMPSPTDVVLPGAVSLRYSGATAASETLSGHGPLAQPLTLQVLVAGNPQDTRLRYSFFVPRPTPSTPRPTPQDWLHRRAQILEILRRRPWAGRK
Chain of A disintegrin and metalloproteinase with thrombospondin motifs 7 (Q9UKP4 whole entry): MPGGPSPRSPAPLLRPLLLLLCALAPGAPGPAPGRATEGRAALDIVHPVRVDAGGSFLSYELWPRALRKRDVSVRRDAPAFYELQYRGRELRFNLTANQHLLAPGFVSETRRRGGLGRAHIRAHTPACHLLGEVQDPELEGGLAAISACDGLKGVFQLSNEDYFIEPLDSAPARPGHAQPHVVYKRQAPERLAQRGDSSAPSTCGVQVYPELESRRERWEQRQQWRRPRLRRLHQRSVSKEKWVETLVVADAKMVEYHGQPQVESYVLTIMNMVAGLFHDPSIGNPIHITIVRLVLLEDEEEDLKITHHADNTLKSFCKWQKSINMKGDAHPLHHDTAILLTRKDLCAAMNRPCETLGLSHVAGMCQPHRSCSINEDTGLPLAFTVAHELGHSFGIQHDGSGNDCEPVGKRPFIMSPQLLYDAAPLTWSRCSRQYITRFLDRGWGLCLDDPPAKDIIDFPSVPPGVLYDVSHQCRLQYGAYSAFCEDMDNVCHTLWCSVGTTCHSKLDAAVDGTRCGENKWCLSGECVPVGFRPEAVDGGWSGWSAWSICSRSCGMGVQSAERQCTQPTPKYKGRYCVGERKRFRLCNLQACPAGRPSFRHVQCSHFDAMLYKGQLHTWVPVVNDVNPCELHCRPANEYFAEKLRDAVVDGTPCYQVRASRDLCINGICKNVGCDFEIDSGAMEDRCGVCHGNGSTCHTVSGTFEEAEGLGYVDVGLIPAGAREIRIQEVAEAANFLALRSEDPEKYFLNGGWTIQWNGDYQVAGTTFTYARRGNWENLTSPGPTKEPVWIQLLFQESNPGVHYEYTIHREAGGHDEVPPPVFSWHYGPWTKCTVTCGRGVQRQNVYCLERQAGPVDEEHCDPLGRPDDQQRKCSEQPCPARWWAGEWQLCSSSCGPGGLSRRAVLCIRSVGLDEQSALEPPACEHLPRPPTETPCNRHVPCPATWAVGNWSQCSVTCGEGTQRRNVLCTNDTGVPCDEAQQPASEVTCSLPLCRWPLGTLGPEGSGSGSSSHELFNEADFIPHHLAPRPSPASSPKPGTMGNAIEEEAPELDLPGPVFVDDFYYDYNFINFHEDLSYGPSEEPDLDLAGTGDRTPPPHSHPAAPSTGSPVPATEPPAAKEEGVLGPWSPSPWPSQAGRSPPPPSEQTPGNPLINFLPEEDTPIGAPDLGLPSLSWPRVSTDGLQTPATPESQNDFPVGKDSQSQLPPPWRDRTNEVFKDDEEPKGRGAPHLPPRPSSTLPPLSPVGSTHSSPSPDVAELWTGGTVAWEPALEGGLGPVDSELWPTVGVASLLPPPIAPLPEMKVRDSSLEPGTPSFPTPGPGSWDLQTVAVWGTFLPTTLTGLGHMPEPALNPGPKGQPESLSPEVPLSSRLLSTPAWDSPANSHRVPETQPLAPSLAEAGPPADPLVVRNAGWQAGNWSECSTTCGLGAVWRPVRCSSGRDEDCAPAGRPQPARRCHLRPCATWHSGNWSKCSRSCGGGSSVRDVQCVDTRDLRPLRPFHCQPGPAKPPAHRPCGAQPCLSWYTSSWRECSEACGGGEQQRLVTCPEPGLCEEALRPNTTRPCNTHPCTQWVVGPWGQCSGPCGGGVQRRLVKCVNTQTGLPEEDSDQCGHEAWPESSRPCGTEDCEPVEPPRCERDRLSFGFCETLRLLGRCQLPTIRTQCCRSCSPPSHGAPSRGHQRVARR

Turning to `Cn1nccc1[C@@]1(CNC(=O)c2ccc(F)cc2-c2ccc(C(F)(F)F)cc2)NC(=O)NC1=O`, the values for the IC50 in experiment [1] and in experiment [2] were 23.4 µM (not active) and > 50 µM (not active), respectively.
